Patent US9023853B2, “Janus kinase 2 (JAK2) inhibitor for the treatment of lupus” (Cephalon, Inc., priority 2010, dated 2015)
Values joined by “and” are separate entries in the source; they are usually repeats but may differ in a detail not shown here. Equal values may be shown once. “Also recorded” adds a separate entry of the source.

Assays:
Format in all cases: in vivo, mouse
anti-dsDNA antibodies = assay: Serum anti-dsDNA ANA ELISA in NZM mice; conditions: Dex 1.5 mpk 3 × wk
Excerpt: The measurement of anti-dsDNA and anti-Smith antigen antibodies was done by an in-house generated custom ELISA assay. Chromatin coated plates were purchased from Inova Diagnostics, Inc. Purified bovine thymus dsDNA (Sigma, St. Louis, […].) or purified bovine Smith antigen (GenWay, San Diego, Calif.) were used as coating antigen for the detection of anti-dsDNA and anti-Smith Ag antibodies respectively. Coated plates were washed with Borate Sulfate Saline (BSS) and blocked with BSS containing 1% Bovine Serum Albumin (BSA) and 0.1% Tween-20 detergent. Standard curves were generated using mouse anti-chromatin antibody (Sigma, 2B1) or 25 week old MRL/lpr serum. Mouse anti-dsDNA antibody (Abcam, Cambridge, Mass.), or mouse anti-Smith antigen antibody (Abcam) were used as standards for each assay. Secondary antibody was purchased from Abcam (goat anti-mouse pAb-HRP), the substrate was purchased from Rockland (Gilbertsville, Pa.) (TMB), and stop reaction buffer was generated using 1 mL of concentrated sulfuric acid into 20 mL of dH2O. Developed plates were read using a Victor-X4 spectrophotometer reading at […] with a reference wavelength of 570 nm. For all ANA ELISA assays, values below the limit of detection set by the lowest point along the standard or set by the manufacturer were considered out of range and were not estimated, but assumed the lowest point along the standard curve for that particular assay.
(§1) Age mated, female, NZM or NZW/LacJ, mice were matured for the study of lupus nephritis for a total of 7 months or 210 days at which time urine was collected for proteinuria detection. Mice with 0.5-1.0 mg/ml of urine protein as determined by an optical density-based total protein precipitation assay and cross-checked for 30-300 mg/dl of protein as determined by a stick assay were considered proteinuria positive and selected for study entry. Groups were normalized to contain a Gaussian distribution of proteinuria positive animals (i.e., ⅓ low proteinuria, ⅓ medium, ⅓ high) then randomized between groups before ear marking and taking baseline measures including urine and serum collections. A total of five mice from the total population were randomly selected for baseline kidney histology evaluation. Treatments and tests for each group are as described in FIG. 12. Briefly, with a minimum of 10 mice per group, COMPOUND A was administered at 100 mg/kg or 55 mg/kg, both twice a day and orally. […] Vehicle included 3% DMSO, 10% Solutol and 87% PBS. […] End-stage lupus nephritis was evaluated by histopathology and scored by a board certified pathologist for the assessment of total renal damage in diseased animals using the scoring method described by Smith et al (Smith, Dong et al. 2007). […] Day-98 or “end of treatment/study” represents 310 days of age for the NZM animals.

NZM mice [1] = assay: Survival in NZM lupus model; conditions: Dex 1.5 mpk 3 × wk
Procedure: Six week old lupus-prone, female, MRL/lpr (Jackson Labs, #000485) and non-lupus prone control MRL/MpJ (Jackson Labs, #000486) mice were obtained from Jackson Laboratories (Bar Harbor, Me.) at 6-weeks of age. Spontaneous SLE-prone NZBWF1/J (NZM) (catalog no. 100008) female mice and non-lupus prone (within time from of experiment) NZW/LacJ (catalog no. 001058) female mice were obtained from Jackson Laboratories (Bar Harbor, Me.) at 15-weeks of age. All mice were maintained on a […] light/dark cycle, with food and water available ad libitum. All experimental animal procedures were approved by and in accordance to the regulations of the Institutional Animal Care and Use Committee (IACUC) of Cephalon, Inc; approved IACUC protocol #03-040 and #03-03-041.
The NZM strain acts as a mouse model of genetically-driven, progressive, systemic lupus erythematosus (SLE). The evolution of the disease in NZM mice is characterized by an abnormal polyclonal B cell activation with a high production of various autoantibodies, including those directed against DNA and other nuclear antigens, and against cytoskeleton proteins. Elevated circulating immune complexes can lead to fatal glomerulonephritis in older mice.
as §1

NZM mice [2] = assay: Renal histopathology kidney IC-GN scoring in NZM mice
Procedure: For histological analyses, the left kidney and lung (NZM model only) from each animal was removed and fixed in 10% buffered neutral 10% formalin (EMD) for 48 hours on an orbital rocker at 25° C., then washed overnight with running dH2O and stored in 70% ethanol at 4° C. until ready to be processed. Kidney stains used for histological analyses included hematoxylin and eosin (H&E), Periodic Acid Schiff (PAS) and Trichrome stains (Wistar Institute, Philadelphia, Pa.). All 3 stained sections were used by the pathologist for scoring purposes. All histological scoring was performed blinded and by an independent board certified veterinary medical pathologist (Julie Engiles, VMD, DACVP; University of Pennsylvania). Multiple stains were used to determine score values. Images in FIGS. 8, 19 and 20 show worst affected area of section selected blindly by the pathologist.
Kidney IC-GN Scoring Method (Smith, Dong et al. 2007):
1. […]
2. […]
3. […]
4. […]
5. […]
6. […]
7. […]
Also considered effacement of the glomerular tuft by PAS positive, Trichrome negative material necrosis. • Glomerular sclerosis was defined by increased fibroplasia or fibrosis within the glomerular tuft or capsule. […] Pharmacodynamic (PD) Analysis
as §1

[3] = NZM individual mouse, Dex 1.5 mpk 3 × wk
[4] = NZM kidney score (grade 0-5), mean, Dex 1.5 mg/kg

C[C@@H]1C[C@H]2[C@@H]3CCC4=CC(=O)C=C[C@]4(C)[C@@]3(F)[C@@H](O)C[C@]2(C)[C@@]1(O)C(=O)CO [Dex, dexamethasone, reference compound]
A: Anti-dsDNA IgG, MEAN (anti-dsDNA antibodies; NZM group mean): 42.7 | A: Anti-dsDNA IgG (anti-dsDNA antibodies; NZM individual mouse): 27.2 and 18.9 and 20.0 and 79.5 and 167.5 and 27.8 and 16.2 and 10.9 and 17.1 | Age (d), MEAN (NZM mice [1]; NZM group mean): 261.4 days | Age (NZM mice [1]; NZM individual mouse (survival; EOS = 310 days of age)): 291 d (2×) and 240 d (3×) and 268 d and 310 d (2×) | B: Glomerular Cellularity (NZM mice [2]; [3]): ++ (‘++’ moderate (3)); also recorded: + (‘+’ mild (2)); also recorded: +++ (‘+++’ high (4)) | C: Glomerular Necrosis (NZM mice [2]; [3]): ++ (‘++’ moderate (3)); also recorded: + (‘+’ mild (2)); also recorded: +++ (‘+++’ high (4)) | D: Glomerular Sclerosis (NZM mice [2]; [3]): +++ (‘+++’ high (4)); also recorded: − (‘−’ no disease (1)); also recorded: ++ (‘++’ moderate (3)); also recorded: ++++ (‘++++’ severe disease (5)) | E: Interstitial Infiltration (NZM mice [2]; [3]): ++ (‘++’ moderate (3)); also recorded: − (‘−’ no disease (1)); also recorded: +++ (‘+++’ high (4)) | F: Tubular Atrophy (NZM mice [2]; [3]): +++ (‘+++’ high (4)); also recorded: − (‘−’ no disease (1)) | G: Interstitial Fibrosis (NZM mice [2]; [3]): +++ (‘+++’ high (4)); also recorded: ++ (‘++’ moderate (3)); also recorded: − (‘−’ no disease (1)) | H: Vasculitis (NZM mice [2]; [3]): + (‘+’ mild (2)); also recorded: − (‘−’ no disease (1)); also recorded: +++ (‘+++’ high (4)) | Glomerular Cellularity (NZM mice [2]; [4]): 3.0 | Glomerular Necrosis (NZM mice [2]; [4]): 3.0 | Glomerulosclerosis (NZM mice [2]; [4]): 3.42 | Interstitial Fibrosis (NZM mice [2]; [4]): 2.71 | Interstitial Infiltration (NZM mice [2]; [4]): 2.71 | Tubular Atrophy (NZM mice [2]; [4]): 3.14 | Vasculitis (NZM mice [2]; [4]): 2.42
